This passage reports Concentration (nM (10e6*cells)-1), Concentration and IC50 results from ChEMBL document CHEMBL1131189, “Conformationally restricted analogues of 1N,12N-bisethylspermine: synthesis and growth inhibitory effects on human tumor cell lines” (1998).

Test [1] relates to DU-145. In words: The concentration levels of analogue evaluated in DU145 cells treated with the compound concentration of 2 uM on third day of treatment. The class given is functional, cell-based. The following applies: Homo sapiens.
Test [2] deals with DU-145. In words: The concentration levels of spermine (SP) evaluated in DU145 cells treated with the compound concentration of 2 uM on third day of treatment. To be noted: Homo sapiens. The class given is functional, cell-based.
The test system of test [3] is DU-145. In words: The concentration levels of spermidine (SD), evaluated in DU145 cells treated with the compound concentration of 0.02 uM on first day of treatment. Type of test: functional, cell-based. The following applies: Homo sapiens.
Test [4] has as its system DU-145. Briefly: The concentration levels of spermidine (SD) evaluated in DU145 cells treated with the compound concentration of 0.02 uM on third day of treatment. Type of test: functional, cell-based. The following applies: Homo sapiens.
Test [5] deals with DU-145. Briefly: The concentration levels of analogue evaluated in DU145 cells treated with the compound concentration of 0.02 uM on third day of treatment. Type of test: functional, cell-based. To be noted: Homo sapiens.
The subject of test [6] is DU-145. In words: The concentration levels of spermidine (SD), evaluated in DU145 cells treated with the compound concentration of 2 uM on first day of treatment. The class given is functional, cell-based. To be noted: Homo sapiens.
Test [7] relates to DU-145. Briefly: The concentration levels of putrescine (PU) evaluated in DU145 cells treated with the compound concentration of 0.02 uM on first day of treatment. Type of test: functional, cell-based. To be noted: Homo sapiens.
Test [8] concerns DU-145. In words: The concentration levels of analogue evaluated in DU145 cells treated with the compound concentration of 0.02 uM on first day of treatment. The class given is functional, cell-based. To be noted: Homo sapiens.
In test [9] the test system is DU-145. Briefly: The concentration levels of putrescine (PU) evaluated in DU145 cells treated with the compound concentration of 2 uM on first day of treatment; Not quanitfiable. The class given is functional, cell-based. The following applies: Homo sapiens.
Test [10] has as its system DU-145. Briefly: The concentration levels of spermine (SP), evaluated in DU145 cells treated with the compound concentration of 2 uM on first day of treatment. The class given is functional, cell-based. The following applies: Homo sapiens.
Test [11] deals with DU-145. Briefly: The concentration levels of spermine (SP), evaluated in DU145 cells treated with the compound concentration of 0.02 uM on first day of treatment. Type of test: functional, cell-based. To be noted: Homo sapiens.
The subject of test [12] is DU-145. Briefly: The concentration levels of spermidine (SD) evaluated in DU145 cells treated with the compound concentration of 2 uM on third day of treatment; Not quantifiable. The following applies: Homo sapiens. The class given is functional, cell-based.
Test [13] has as its system DU-145. Briefly: The concentration levels of putrescine (PU) evaluated in DU145 cells treated with the compound concentration of 2 uM on third day of treatment; Not quantifiable. The class given is functional, cell-based. To be noted: Homo sapiens.
The test system of test [14] is DU-145. In words: The concentration levels of putrescine (PU) evaluated in DU145 cells treated with the compound concentration of 0.02 uM on third day of treatment. The class given is functional, cell-based. To be noted: Homo sapiens.
In test [15] the test system is DU-145. Briefly: The concentration levels of analogue evaluated in DU145 cells treated with the compound concentration of 2 uM on first day of treatment. Type of test: functional, cell-based. To be noted: Homo sapiens.
The test system of test [16] is DU-145. Briefly: The concentration levels of spermine (SP) evaluated in DU145 cells treated with the compound concentration of 0.02 uM on third day of treatment. The following applies: Homo sapiens. Type of test: functional, cell-based.
A further test concerns HT-29. In words: Growth inhibitory activity was measured for human HT-29 tumor cell line. The class given is functional. The following applies: Homo sapiens, HT-29; read-out: ID50 (the source's name).
A further test has as its system MCF7. In words: Growth inhibitory activity was measured for human MCF-7 tumor cell line. Type of test: functional. To be noted: read-out: ID50 (the source's name).
Test [17] deals with DU-145. Briefly: Growth inhibitory activity was measured for human DU145 tumor cell line. The class given is functional. To be noted: read-out: ID50 (the source's name).
For the next test, the system named is U-251. In words: Growth inhibitory activity was measured for human U251MG NCI tumor cell line. Type of test: functional. The following applies: read-out: ID50 (the source's name).

Regarding `CCNCCCNCC1CC1CNCCCNCC` (stereo in doubt; 9), the Concentration (nM (10e6*cells)-1) in the test with DU-145 [1] amounted to 3.97; with DU-145 [2] it was 0.06; in the test on DU-145 [3] it was 1.64; in the test with DU-145 [4], 1.01; in the test on DU-145 [5] it was 0.15; in the test with DU-145 [6] it was 0.1. Also, the Concentration (nM (10e6*cells)-1) in the test with DU-145 [7] was 0.18; in the test on DU-145 [8], 0.9; in the test on DU-145 [10], 0.4; in the test with DU-145 [11], 2.16; with DU-145 [14], 0.05; in the test with DU-145 [15], 4.08. Further, in the test with DU-145 [16], the Concentration (nM (10e6*cells)-1) came to 1.97. The Concentration result with DU-145 [9], in the test with DU-145 [12] and in the test with DU-145 [13] was “Not quantifiable” throughout.
As for `CCNCCCNCC1CCC1CNCCCNCC` (stereo in doubt; 15), the IC50 in the test on HT-29 is 1.6 µM; with MCF7 it was over 31.2 µM; with DU-145 [17], 0.01 µM; in the test with U-251 it was 0.12 µM.
